Reference: US7101988B2, “Polyvalent cation-sensing receptor in Atlantic salmon” (MariCal, Inc., priority 2000, dated 2006)
Changes are numbered by the printed parent chain. Where two headings read alike, the source gives them in different places.

Assays:
[1] = tested on: olfactory epithelium of freshwater adapted juvenile Atlantic salmon; assay: Extracellular electrical potentials (EEG) from olfactory nerve; type: in vivo; conditions: for olfactory nerve response to stimulus: 500 micromolar L-alanine, 1 mM Ca2+, 250 mM NaCl, 50 micromolar Gd3+; for effect on olfactory epithelium response to mammalian finger rinse: 5 mM Ca2+ or 50 micromolar Gd3+; for effect on olfactory nerve response to 500 micromolar L-alanine: 5 mM Ca2+, 50 micromolar Gd3+ or 250 mM NaCl
From the text: Physiol. A 127:157–166 (1975), and Hubbard, P C, et al., Olfactory sensitivity to changes in environmental Ca2+ in the marine teleost Sparus Aurata, J. Exp. Biol. 203:3821–3829 (2000). After anaesthetizing the fish, it was placed in V-clamp apparatus where its gills were irrigated continuously with aerated seawater and its nasal lamellae bathed continuously by a stream of distilled water via a tube held in position in the inhalant olfactory opening. The olfactory nerves of the fish were exposed by removal of overlying bony structures. Stimuli were delivered as boluses to the olfactory epithelium via a 3 way valve where 1 cc of water containing the stimulus was rapidly injected into the tube containing a continuously stream of distilled water. […] Using this experimental approach, stable and reproducible recordings could be obtained for up to 6 hr after the initial surgery on the fish.

HuPCaR [2] = target: T1, HuPCaR (Homo sapiens, UniProt P41180, R227L); conditions: HuPCaR AA #227 altered to Leu; read-out: EC50 Ca2+; cited from earlier work
T1 sequence (P41180 20-1078 R227L): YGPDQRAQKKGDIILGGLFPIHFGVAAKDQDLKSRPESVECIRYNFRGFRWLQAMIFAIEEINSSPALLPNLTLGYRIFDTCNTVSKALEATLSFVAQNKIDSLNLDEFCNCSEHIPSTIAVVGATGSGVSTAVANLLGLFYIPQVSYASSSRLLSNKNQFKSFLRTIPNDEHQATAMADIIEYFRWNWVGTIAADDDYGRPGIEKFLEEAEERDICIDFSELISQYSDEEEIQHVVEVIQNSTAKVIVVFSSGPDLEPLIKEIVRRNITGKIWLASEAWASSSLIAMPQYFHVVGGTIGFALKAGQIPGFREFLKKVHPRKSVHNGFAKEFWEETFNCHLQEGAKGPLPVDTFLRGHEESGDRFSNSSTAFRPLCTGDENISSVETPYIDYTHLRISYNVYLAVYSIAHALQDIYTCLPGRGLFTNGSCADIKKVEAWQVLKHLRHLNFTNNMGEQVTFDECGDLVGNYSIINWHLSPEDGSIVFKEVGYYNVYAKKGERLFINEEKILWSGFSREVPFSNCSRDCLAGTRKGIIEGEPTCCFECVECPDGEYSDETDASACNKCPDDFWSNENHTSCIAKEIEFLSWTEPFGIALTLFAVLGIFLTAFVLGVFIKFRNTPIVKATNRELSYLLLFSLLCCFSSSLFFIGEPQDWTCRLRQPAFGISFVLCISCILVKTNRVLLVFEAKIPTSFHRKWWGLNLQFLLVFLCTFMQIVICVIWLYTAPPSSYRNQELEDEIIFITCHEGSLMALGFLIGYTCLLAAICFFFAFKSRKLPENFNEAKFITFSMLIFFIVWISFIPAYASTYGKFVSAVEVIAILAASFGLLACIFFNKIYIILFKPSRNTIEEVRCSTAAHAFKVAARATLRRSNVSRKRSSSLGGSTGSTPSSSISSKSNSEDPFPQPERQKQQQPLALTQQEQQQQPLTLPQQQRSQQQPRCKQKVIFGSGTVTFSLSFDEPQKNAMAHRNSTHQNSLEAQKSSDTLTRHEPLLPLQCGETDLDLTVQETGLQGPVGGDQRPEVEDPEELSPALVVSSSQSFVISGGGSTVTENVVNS

HuPCaR [3] = target: T2, HuPCaR (Homo sapiens, UniProt P41180); conditions: HuPCaR with Arg at AA #227; read-out: EC50 Ca2+; cited from earlier work
T2 sequence (P41180 20-1078): T1 sequence (P41180 20-1078 R227L) with L208R

SKCaR = assay: FURA 2 based assay of SKCaR activation in transfected HEK cells; type: cell-based, dogfish shark (Squalus acanthias); conditions: for alteration in SKCaR sensitivity to Ca2+: increasing extracellular NaCl, sucrose as osmolality control; for effect of amino acids on SKCaR's response to Ca2+: 10 mM Phe, 10 mM Ile or AA Mixture, FURA-2
From the text: SKCaR cDNA was ligated into the mammalian expression vector PCDNA II and transfected into HEK cells using standard techniques. The presence of SKCaR protein in transfected cells was verified by western blotting. Activation of SKCaR by extracellular Ca2+, Mg2+ or NaCl was quantified using a well characterized FURA 2 based assay where increases in intracellular Ca2+ produced by SKCaR activation are detected using methodology published previously by Bai, M., S. Quinn, S. Trvedi, O. Kifor, S. H. S. Pearce, M. R. Pollack, K. Krapcho, S. C. Hebert and E. M. Brown. Expression and characterization of inactivating and activating mutations in the human Ca2+-sensing receptor. J. Biol. Chem., 32:19537–19545 (1996); and expressed as % normalized intracellular calcium response to receptor activation.
Full length recombinant dogfish (Squalas acanthias) shark kidney calcium receptor (SKCaR) was expressed in human embryonic kidney cells using methods described herein. The ability of SKCaR to respond to individual amino acids as well as various mixtures was quantified using FURA-2 ratio imaging fluorescence.
Baseline extracellular Ca^2+ concentration was 0.5 mM. Aliquots of Ca^2+ were added to produce final extracellular concentrations of 2.5 mM, 5 mM, 7.5 mM, 10 mM and 20 mM Ca^2+ with changes in the fluorescence recorded. Note that increases in cell fluorescence were greater in the presence of 10 mM Phe for extracellular Ca^2+ concentrations less than 10 mM.

[4] = normalized to response to 10 mM Ca2+

For `C[C@H](N)C(=O)O` [L-alanine], the “duration of olfactory nerve response” value ([1]; 500 micromolar) was “approximately 2 seconds” and the “olfactory nerve response to stimulus” value [1] was “large increases in both the firing frequency and amplitude in the olfactory nerve”.

For `[Ca+2]` [Ca2+, calcium], the EC50 (HuPCaR [2]) is given as 9.3 mM, the EC50 (HuPCaR [3]) is given as 4 mM and the “effect on olfactory epithelium response to mammalian finger rinse” value [1] is given as “reversibly ablated the response”. For the same compound, the “effect on olfactory nerve response to 500 micromolar L-alanine” value (shortened to “effect on olfactory nerve response”) [1] was “complete loss of the corresponding response”, the “olfactory nerve response to stimulus” value [1] was “produce responses in EEG activity” and the EC50 ([1]; normalized to response to 10 mM Ca2+, read-out: half maximal excitatory response (EC50)) was 0.001 to 0.01 mM. For the same compound, the “effect of added Ca2+ on sensitivity of SKCaR to Mg2+” value (SKCaR; 3 mM Ca2+ added, as a function of extracellular NaCl) was “increases the sensitivity of SKCaR to Mg2+”, the EC50 (SKCaR; depending on the extracellular concentration of NaCl, read-out: half maximal activation of SKCaR by extracellular Ca2+) was 1 to 15 mM and the EC50 (SKCaR; extracellular NaCl 50 mM, read-out: EC50 for Ca2+) was < 5 mM. The EC50 (SKCaR; extracellular NaCl 550 mM, read-out: EC50 for Ca2+) was ~18 mM.

In the case of `OC[C@H]1O[C@@](CO)(O[C@H]2O[C@H](CO)[C@@H](O)[C@H](O)[C@H]2O)[C@@H](O)[C@@H]1O` [sucrose], the “alteration in SKCaR sensitivity to Ca2+” value (SKCaR) is reported as “not observed”.

With `CC[C@H](C)[C@H](N)C(=O)O` [Ile, L-Isoleucine] the “effect of amino acids on SKCaR's response to Ca2+” value (SKCaR) was “increase SKCaR's response to a given Ca^2+ concentration”.

In the case of `N[C@@H](Cc1ccccc1)C(=O)O` [Phe, L-Phenylalanine], the “effect of amino acids on SKCaR's response to Ca2+” value (SKCaR) is reported as “increase SKCaR's response to a given Ca^2+ concentration” and the “increases in cell fluorescence” value (SKCaR; 10 mM, extracellular Ca2+ less than 10 mM) is reported as “greater”.

For `[Gd+3]` [Gd^3+, gadolinium], the “effect on olfactory epithelium response to mammalian finger rinse” value [1] was “reversibly ablated the response”, the “effect on olfactory nerve response” value [1] was “complete loss of the corresponding response” and the “olfactory nerve response to stimulus” value [1] was “obtained a response”. The “concentration at which olfactory epithelium responses occur” value [1, 4] was 1 to 10 µM.

With `[Cl-].[Na+]` [NaCl, sodium chloride] the “effect on olfactory nerve response” value [1] was “resulted initially in a similar response”, the “olfactory nerve response to stimulus” value [1] was “produce responses in EEG activity” and the “concentration until which olfactory epithelium is unresponsive” value ([1]; in vivo) was 250 millimolar. For the same compound, the “alteration in SKCaR sensitivity to Ca2+” value (SKCaR) was “reduce the sensitivity of SKCaR to Ca2+”.

In the case of `[Mg+2]` [Mg2+, magnesium], the “concentration at which olfactory epithelium responses occur” value [1, 4] is reported as 10 to 100 µM, the “range of extracellular Mg2+ in which SKCaR is activated” value (SKCaR) is reported as 5 to 40 mM and the EC50 (SKCaR; extracellular NaCl 50 mM, read-out: EC50 for Mg2+) is reported as < 20 mM. For the same compound, the EC50 (SKCaR; extracellular NaCl 550 mM, read-out: EC50 for Mg2+) was ~80 mM.
